Laboratory results from US20240138411A1, “METHOD OF […] OF SUGARCANE” (CORTEVA AGRISCIENCE LLC, priority 2021, published 2024).

Test system: sugarcane
Assay: Sugarcane flowering inhibition field trials, floral induction rated on UFSCar scale
Assay type: in vivo
Procedure: In order to explore the activity of florpyrauxifen as flowering inhibitor in sugarcane, field studies were carried out. Florpyrauxifen-benzyl was tested at rates from 2 to 20 grams active ingredient per hectare (g ai/ha) and compared to Ethrel® 720 (Bayer), the standard treatment. The flowering inhibition effect was assessed by checking the floral induction in sugarcane through the percentage scale recommended by UFSCar (Federal University of Sao Carlos, Sao Paulo, Brazil).
Four trials were carried out in sugarcane where florpyrauxifen-benzyl (Rinskor®), applied at a rate of 2 to 20 g ai/ha, was compared to ethephon (Ethrel® 720) applied at a rate of 475 g ai/ha. Control plots of untreated sugarcane were also evaluated. Rinskor® and Ethrel® 720 were diluted in water and a single application for each study (backpack sprayer) was performed delivering 50 L of spray solution per ha at the reproductive stage of sugarcane and at a maximum 150 days before harvest. The activity of florpyrauxifen-benzyl as a flowering inhibitor was measured via assessments (Scale of flowering inhibition—see chart 1) performed at 0, 14, 30, 45, 60, 75, 90, 120, 150 days after application, or up to harvest time. The assessments were measured in sugarcane stems, rating the flowering induction according to the UFSCar scale shown below. Significance of treatment effect was evaluated with F-approximate test (α=0.1) and least square means from different treatments were compared with Tukey's test.

For `COc1c(Cl)ccc(-c2nc(C(=O)OCc3ccccc3)c(Cl)c(N)c2F)c1F` [Rinskor, florpyrauxifen-benzyl], the “Frequency 1/1 (0%)” value (Table 2, 120 DAA, 5 g ai/ha) was 0.0%, the “Frequency 2/1 (15%)” value (Table 2, 120 DAA, 5 g ai/ha) was 0.0% and the “Frequency 3/1 (30%)” value (Table 2, 120 DAA, 5 g ai/ha) was 0.0%. For the same compound, the “Frequency 4/1 (50%)” value (Table 2, 120 DAA, 5 g ai/ha) was 0.0%, the “Frequency 4/2 (80%)” value (Table 2, 120 DAA, 5 g ai/ha) was 7.5% and the “Frequency 4/3 (90%)” value (Table 2, 120 DAA, 5 g ai/ha) was 20.0%. For the same compound, the “Frequency 4/4 (100%)” value (Table 2, 120 DAA, 5 g ai/ha) was 72.5%, the “% Referring to Scale” value (Table 2, 120 DAA, 7 g ai/ha) was 97.0% and the “Frequency 1/1 (0%)” value (Table 2, 120 DAA, 7 g ai/ha) was 0.0%. The “Frequency 2/1 (15%)” value (Table 2, 120 DAA, 7 g ai/ha) was 0.0%, the “Frequency 3/1 (30%)” value (Table 2, 120 DAA, 7 g ai/ha) was 0.0% and the “Frequency 4/1 (50%)” value (Table 2, 120 DAA, 7 g ai/ha) was 0.0%. The “Frequency 4/2 (80%)” value (Table 2, 120 DAA, 7 g ai/ha) was 5.0%, the “Frequency 4/3 (90%)” value (Table 2, 120 DAA, 7 g ai/ha) was 20.0% and the “Frequency 4/4 (100%)” value (Table 2, 120 DAA, 7 g ai/ha) was 75.0%. The “% Referring to Scale” value (Table 2, 120 DAA, 10 g ai/ha) was 96.8%, the “Frequency 1/1 (0%)” value (Table 2, 120 DAA, 10 g ai/ha) was 0.0% and the “Frequency 2/1 (15%)” value (Table 2, 120 DAA, 10 g ai/ha) was 0.0%. For the same compound, the “Frequency 3/1 (30%)” value (Table 2, 120 DAA, 10 g ai/ha) was 0.0%, the “Frequency 4/1 (50%)” value (Table 2, 120 DAA, 10 g ai/ha) was 0.0% and the “Frequency 4/2 (80%)” value (Table 2, 120 DAA, 10 g ai/ha) was 10.0%. The “Frequency 4/3 (90%)” value (Table 2, 120 DAA, 10 g ai/ha) was 12.5%, the “Frequency 4/4 (100%)” value (Table 2, 120 DAA, 10 g ai/ha) was 77.5% and the “% Referring to Scale” value (Table 2, 120 DAA, 15 g ai/ha) was 98.5%. The “Frequency 1/1 (0%)” value (Table 2, 120 DAA, 15 g ai/ha) was 0.0%, the “Frequency 2/1 (15%)” value (Table 2, 120 DAA, 15 g ai/ha) was 0.0% and the “Frequency 3/1 (30%)” value (Table 2, 120 DAA, 15 g ai/ha) was 0.0%. For the same compound, the “Frequency 4/1 (50%)” value (Table 2, 120 DAA, 15 g ai/ha) was 0.0%, the “Frequency 4/2 (80%)” value (Table 2, 120 DAA, 15 g ai/ha) was 0.0% and the “Frequency 4/3 (90%)” value (Table 2, 120 DAA, 15 g ai/ha) was 15.0%. The “Frequency 4/4 (100%)” value (Table 2, 120 DAA, 15 g ai/ha) was 85.0%, the “% Referring to Scale” value (Table 2, 120 DAA, 20 g ai/ha) was 97.5% and the “Frequency 1/1 (0%)” value (Table 2, 120 DAA, 20 g ai/ha) was 0.0%. The “Frequency 2/1 (15%)” value (Table 2, 120 DAA, 20 g ai/ha) was 0.0%, the “Frequency 3/1 (30%)” value (Table 2, 120 DAA, 20 g ai/ha) was 0.0% and the “Frequency 4/1 (50%)” value (Table 2, 120 DAA, 20 g ai/ha) was 0.0%. The “Frequency 4/2 (80%)” value (Table 2, 120 DAA, 20 g ai/ha) was 7.5%, the “Frequency 4/3 (90%)” value (Table 2, 120 DAA, 20 g ai/ha) was 10.0% and the “Frequency 4/4 (100%)” value (Table 2, 120 DAA, 20 g ai/ha) was 82.5%. The “% Referring to Scale” value (Table 3, 90 DAA, 2 g ai/ha) was 0.0%, the “Frequency 1/1 (0%)” value (Table 3, 90 DAA, 2 g ai/ha) was 100.0% and the “Frequency 2/1 (15%)” value (Table 3, 90 DAA, 2 g ai/ha) was 0.0%. For the same compound, the “Frequency 3/1 (30%)” value (Table 3, 90 DAA, 2 g ai/ha) was 0.0%, the “Frequency 4/1 (50%)” value (Table 3, 90 DAA, 2 g ai/ha) was 0.0% and the “Frequency 4/2 (80%)” value (Table 3, 90 DAA, 2 g ai/ha) was 0.0%. For the same compound, the “Frequency 4/3 (90%)” value (Table 3, 90 DAA, 2 g ai/ha) was 0.0%, the “Frequency 4/4 (100%)” value (Table 3, 90 DAA, 2 g ai/ha) was 0.0% and the “% Referring to Scale” value (Table 3, 90 DAA, 5 g ai/ha) was 0.0%. For the same compound, the “Frequency 1/1 (0%)” value (Table 3, 90 DAA, 5 g ai/ha) was 100.0%, the “Frequency 2/1 (15%)” value (Table 3, 90 DAA, 5 g ai/ha) was 0.0% and the “Frequency 3/1 (30%)” value (Table 3, 90 DAA, 5 g ai/ha) was 0.0%. For the same compound, the “Frequency 4/1 (50%)” value (Table 3, 90 DAA, 5 g ai/ha) was 0.0%, the “Frequency 4/2 (80%)” value (Table 3, 90 DAA, 5 g ai/ha) was 0.0% and the “Frequency 4/3 (90%)” value (Table 3, 90 DAA, 5 g ai/ha) was 0.0%. The “Frequency 4/4 (100%)” value (Table 3, 90 DAA, 5 g ai/ha) was 0.0%, the “% Referring to Scale” value (Table 3, 90 DAA, 7 g ai/ha) was 0.0% and the “Frequency 1/1 (0%)” value (Table 3, 90 DAA, 7 g ai/ha) was 100.0%. For the same compound, the “Frequency 2/1 (15%)” value (Table 3, 90 DAA, 7 g ai/ha) was 0.0%, the “Frequency 3/1 (30%)” value (Table 3, 90 DAA, 7 g ai/ha) was 0.0% and the “Frequency 4/1 (50%)” value (Table 3, 90 DAA, 7 g ai/ha) was 0.0%. The “Frequency 4/2 (80%)” value (Table 3, 90 DAA, 7 g ai/ha) was 0.0%, the “Frequency 4/3 (90%)” value (Table 3, 90 DAA, 7 g ai/ha) was 0.0% and the “Frequency 4/4 (100%)” value (Table 3, 90 DAA, 7 g ai/ha) was 0.0%. The “% Referring to Scale” value (Table 3, 90 DAA, 10 g ai/ha) was 0.4%, the “Frequency 1/1 (0%)” value (Table 3, 90 DAA, 10 g ai/ha) was 97.5% and the “Frequency 2/1 (15%)” value (Table 3, 90 DAA, 10 g ai/ha) was 2.5%. For the same compound, the “Frequency 3/1 (30%)” value (Table 3, 90 DAA, 10 g ai/ha) was 0.0%, the “Frequency 4/1 (50%)” value (Table 3, 90 DAA, 10 g ai/ha) was 0.0% and the “Frequency 4/2 (80%)” value (Table 3, 90 DAA, 10 g ai/ha) was 0.0%. The “Frequency 4/3 (90%)” value (Table 3, 90 DAA, 10 g ai/ha) was 0.0%, the “Frequency 4/4 (100%)” value (Table 3, 90 DAA, 10 g ai/ha) was 0.0% and the “% Referring to Scale” value (Table 3, 90 DAA, 15 g ai/ha) was 0.0%. The “Frequency 1/1 (0%)” value (Table 3, 90 DAA, 15 g ai/ha) was 100.0%, the “Frequency 2/1 (15%)” value (Table 3, 90 DAA, 15 g ai/ha) was 0.0% and the “Frequency 3/1 (30%)” value (Table 3, 90 DAA, 15 g ai/ha) was 0.0%. The “Frequency 4/1 (50%)” value (Table 3, 90 DAA, 15 g ai/ha) was 0.0%, the “Frequency 4/2 (80%)” value (Table 3, 90 DAA, 15 g ai/ha) was 0.0% and the “Frequency 4/3 (90%)” value (Table 3, 90 DAA, 15 g ai/ha) was 0.0%. For the same compound, the “Frequency 4/4 (100%)” value (Table 3, 90 DAA, 15 g ai/ha) was 0.0%, the “% Referring to Scale” value (Table 3, 90 DAA, 20 g ai/ha) was 0.0% and the “Frequency 1/1 (0%)” value (Table 3, 90 DAA, 20 g ai/ha) was 100.0%. The “Frequency 2/1 (15%)” value (Table 3, 90 DAA, 20 g ai/ha) was 0.0%, the “Frequency 3/1 (30%)” value (Table 3, 90 DAA, 20 g ai/ha) was 0.0% and the “Frequency 4/1 (50%)” value (Table 3, 90 DAA, 20 g ai/ha) was 0.0%. The “Frequency 4/2 (80%)” value (Table 3, 90 DAA, 20 g ai/ha) was 0.0%, the “Frequency 4/3 (90%)” value (Table 3, 90 DAA, 20 g ai/ha) was 0.0% and the “Frequency 4/4 (100%)” value (Table 3, 90 DAA, 20 g ai/ha) was 0.0%. For the same compound, the “% Referring to Scale” value (Table 3, 120 DAA, 2 g ai/ha) was 5.6%, the “Frequency 1/1 (0%)” value (Table 3, 120 DAA, 2 g ai/ha) was 62.5% and the “Frequency 2/1 (15%)” value (Table 3, 120 DAA, 2 g ai/ha) was 37.5%. The “Frequency 3/1 (30%)” value (Table 3, 120 DAA, 2 g ai/ha) was 0.0%, the “Frequency 4/1 (50%)” value (Table 3, 120 DAA, 2 g ai/ha) was 0.0% and the “Frequency 4/2 (80%)” value (Table 3, 120 DAA, 2 g ai/ha) was 0.0%. The “Frequency 4/3 (90%)” value (Table 3, 120 DAA, 2 g ai/ha) was 0.0%, the “Frequency 4/4 (100%)” value (Table 3, 120 DAA, 2 g ai/ha) was 0.0% and the “% Referring to Scale” value (Table 3, 120 DAA, 5 g ai/ha) was 6.9%. For the same compound, the “Frequency 1/1 (0%)” value (Table 3, 120 DAA, 5 g ai/ha) was 62.5%, the “Frequency 2/1 (15%)” value (Table 3, 120 DAA, 5 g ai/ha) was 32.5% and the “Frequency 3/1 (30%)” value (Table 3, 120 DAA, 5 g ai/ha) was 2.5%. The “Frequency 4/1 (50%)” value (Table 3, 120 DAA, 5 g ai/ha) was 2.5%, the “Frequency 4/2 (80%)” value (Table 3, 120 DAA, 5 g ai/ha) was 0.0% and the “Frequency 4/3 (90%)” value (Table 3, 120 DAA, 5 g ai/ha) was 0.0%. The “Frequency 4/4 (100%)” value (Table 3, 120 DAA, 5 g ai/ha) was 0.0%, the “% Referring to Scale” value (Table 3, 120 DAA, 7 g ai/ha) was 3.0% and the “Frequency 1/1 (0%)” value (Table 3, 120 DAA, 7 g ai/ha) was 80.0%. The “Frequency 2/1 (15%)” value (Table 3, 120 DAA, 7 g ai/ha) was 20.0%, the “Frequency 3/1 (30%)” value (Table 3, 120 DAA, 7 g ai/ha) was 0.0% and the “Frequency 4/1 (50%)” value (Table 3, 120 DAA, 7 g ai/ha) was 0.0%. For the same compound, the “Frequency 4/2 (80%)” value (Table 3, 120 DAA, 7 g ai/ha) was 0.0%, the “Frequency 4/3 (90%)” value (Table 3, 120 DAA, 7 g ai/ha) was 0.0% and the “Frequency 4/4 (100%)” value (Table 3, 120 DAA, 7 g ai/ha) was 0.0%. For the same compound, the “% Referring to Scale” value (Table 3, 120 DAA, 10 g ai/ha) was 4.1%.
